In EPA's ToxValDB 9.5 (doi:10.2903/j.efsa.2010.1558):
Values after ≈ are worked out from the molar mass of the structure shown.

Legend:
Anas platyrhynchos = conditions: reproductive
Apis mellifera = conditions: acute, duration: 48 hours, mortality
Canidae = conditions: chronic; duration: 1 years; oral; Dog Other; body weight
Colinus virginianus = conditions: oral
Daphnia magna = conditions: chronic/long-term; duration: 21 days; mobility
Lepomis macrochirus = conditions: acute; duration: 96 hours; mortality
Pimephales promelas = conditions: chronic/long-term; duration: 33 days; growth
Rattus norvegicus = conditions: for NOAEL: reproduction developmental
Tagia sp. = conditions: acute; duration: 14 days; mortality
Typhlodromus pyri = conditions: acute; duration: 14 days; reproduction

In the case of `N#CC(CCc1ccc(Cl)cc1)(Cn1cncn1)c1ccccc1` (centres undefined), the NOEC (Anas platyrhynchos) is reported as 21 mg/kg-day, the LD50 (Apis mellifera; dermal) is reported as > 5.5 µg/piece and the LD50 (Apis mellifera; oral, unspecified) is reported as > 5.2 µg/piece. The NOAEL (Canidae) was 0.62 mg/kg-day, the LD50 (Colinus virginianus; acute, mortality) was > 2150 mg/kg-day and the NOEL (Colinus virginianus; short-term, diet, food consumption) was 111 mg/kg-day. For the same compound, the NOEC (Daphnia magna) was 0.078 mg/L, the LC50 (Lepomis macrochirus) was 0.68 µg/mL (≈ 2.02 µM) and the NOEC (Pimephales promelas) was 0.023 mg/L. The LD50 (Rattus norvegicus; acute, oral, mortality) was > 5000 mg/kg-day, the NOAEL (Rattus norvegicus; body weight) was 30 mg/kg-day and the NOAEL (Rattus norvegicus; reproduction) was 5 mg/kg-day. The LC50 (Tagia sp.) was > 100 mg/kg and the LEL (Typhlodromus pyri) was 63 g/ha.
